Calls of active or inactive are those of the source. The rule behind the calls is not given here.
Key:
Candida albicans = experiment: Antifungal activity against Candida albicans MTCC 227 at 50 to 300 ug/ml by cup-plate method; type: functional, organism-based
Bacillus subtilis [1] = experiment: Antibacterial activity against Bacillus subtilis MTCC 121 by cup plate method; type: functional, organism-based
Bacillus subtilis [2] = experiment: Antibacterial activity against Bacillus subtilis MTCC 121 at 100 ug/ml by cup plate method; type: functional; conditions: read-out: DIZ
Bacillus subtilis [3] = experiment: Antibacterial activity against Bacillus subtilis MTCC 121 at 50 ug/ml by cup plate method; type: functional; conditions: read-out: DIZ
Escherichia coli [4] = experiment: Antibacterial activity against Escherichia coli MTCC 739 at 300 ug/ml by cup-plate method; type: functional; conditions: read-out: DIZ
Bacillus subtilis [5] = experiment: Antibacterial activity against Bacillus subtilis MTCC 121 at 200 ug/ml by cup plate method; type: functional; conditions: read-out: DIZ
Pseudomonas aeruginosa [6] = experiment: Antibacterial activity against Pseudomonas aeruginosa MTCC 2453 at 300 ug/ml by cup-plate method; type: functional; conditions: read-out: DIZ
Escherichia coli [7] = experiment: Antibacterial activity against Escherichia coli MTCC 739 at 100 ug/ml by cup-plate method; type: functional; conditions: read-out: DIZ
Pseudomonas aeruginosa [8] = experiment: Antibacterial activity against Pseudomonas aeruginosa MTCC 2453 at 50 ug/ml by cup-plate method; type: functional; conditions: read-out: DIZ
Escherichia coli [9] = experiment: Antibacterial activity against Escherichia coli MTCC 739 at 200 ug/ml by cup-plate method; type: functional; conditions: read-out: DIZ
Pseudomonas aeruginosa [10] = experiment: Antibacterial activity against Pseudomonas aeruginosa MTCC 2453 at 200 ug/ml by cup-plate method; type: functional; conditions: read-out: DIZ
Pseudomonas aeruginosa [11] = experiment: Antibacterial activity against Pseudomonas aeruginosa MTCC 2453 by cup-plate method; type: functional, organism-based
Staphylococcus aureus [12] = experiment: Antibacterial activity against Staphylococcus aureus MTCC 96 at 300 ug/ml by cup-plate method; type: functional; conditions: read-out: DIZ
Escherichia coli [13] = experiment: Antibacterial activity against Escherichia coli MTCC 739 by cup-plate method; type: functional, organism-based
Bacillus subtilis [14] = experiment: Antibacterial activity against Bacillus subtilis MTCC 121 at 300 ug/ml by cup plate method; type: functional; conditions: read-out: DIZ
Staphylococcus aureus [15] = experiment: Antibacterial activity against Staphylococcus aureus MTCC 96 at 100 ug/ml by cup-plate method; type: functional; conditions: read-out: DIZ
Staphylococcus aureus [16] = experiment: Antibacterial activity against Staphylococcus aureus MTCC 96 at 50 ug/ml by cup-plate method; type: functional; conditions: read-out: DIZ
Pseudomonas aeruginosa [17] = experiment: Antibacterial activity against Pseudomonas aeruginosa MTCC 2453 at 100 ug/ml by cup-plate method; type: functional; conditions: read-out: DIZ
Staphylococcus aureus [18] = experiment: Antibacterial activity against Staphylococcus aureus MTCC 96 at 200 ug/ml by cup-plate method; type: functional; conditions: read-out: DIZ
Escherichia coli [19] = experiment: Antibacterial activity against Escherichia coli MTCC 739 at 50 ug/ml by cup-plate method; type: functional; conditions: read-out: DIZ
Staphylococcus aureus [20] = experiment: Antibacterial activity against Staphylococcus aureus MTCC 96 by cup-plate method; type: functional, organism-based

Row | Structure (SMILES) | Activity (Candida albicans) | Activity (Bacillus subtilis [1]) | zone of inhibition at 100 µg/mL (Bacillus subtilis [2]) | zone of inhibition at 50 µg/mL (Bacillus subtilis [3]) | zone of inhibition at 300 µg/mL (Escherichia coli [4]) | zone of inhibition at 200 µg/mL (Bacillus subtilis [5]) | zone of inhibition at 300 µg/mL (Pseudomonas aeruginosa [6]) | zone of inhibition at 100 µg/mL (Escherichia coli [7]) | zone of inhibition at 50 µg/mL (Pseudomonas aeruginosa [8]) | zone of inhibition at 200 µg/mL (Escherichia coli [9]) | zone of inhibition at 200 µg/mL (Pseudomonas aeruginosa [10]) | Activity (Pseudomonas aeruginosa [11]) | zone of inhibition at 300 µg/mL (Staphylococcus aureus [12]) | Activity (Escherichia coli [13]) | zone of inhibition at 300 µg/mL (Bacillus subtilis [14]) | zone of inhibition at 100 µg/mL (Staphylococcus aureus [15]) | zone of inhibition at 50 µg/mL (Staphylococcus aureus [16]) | zone of inhibition at 100 µg/mL (Pseudomonas aeruginosa [17]) | zone of inhibition at 200 µg/mL (Staphylococcus aureus [18]) | zone of inhibition at 50 µg/mL (Escherichia coli [19]) | further results
1 | COc1cc(/C=C2\S/C(=N/c3cccc(Cl)c3)NC2=O)ccc1O | inactive | Dose-dependent effect | 8 mm | 7 mm | 9 mm | 8 mm | 9 mm | 8 mm | 6 mm | 9 mm | 9 mm | Dose-dependent effect | 8 mm | Dose-dependent effect | 9 mm | 7 mm | 6 mm | 8 mm | 8 mm | 7 mm | Activity (Staphylococcus aureus [20]): Dose-dependent effect
2 | O=C1N/C(=N\c2ccc(F)c(Cl)c2)S/C1=C\c1ccc(Cl)cc1 | inactive | Dose-dependent effect | 10 mm | 8 mm | 12 mm | 11 mm | 12 mm | 12 mm | 8 mm | 12 mm | 11 mm | Dose-dependent effect | 14 mm | Dose-dependent effect | 13 mm | 12 mm | 10 mm | 9 mm | 12 mm | 9 mm | Activity (Staphylococcus aureus [20]): Dose-dependent effect
3 | O=C1N/C(=N\c2ccc(Cl)cc2)S/C1=C\c1ccccc1Cl | inactive | Dose-dependent effect | 8 mm | 8 mm | 9 mm | 9 mm | 9 mm | 9 mm | 9 mm | 10 mm | 9 mm | Dose-dependent effect | 10 mm | Dose-dependent effect | 10 mm | 8 mm | 8 mm | 9 mm | 9 mm | 9 mm | Activity (Staphylococcus aureus [20]): Dose-dependent effect
4 | O=C1N/C(=N\c2ccc(Cl)cc2)S/C1=C\c1ccc(Cl)cc1 | inactive | Dose-dependent effect | 8 mm | 7 mm | 9 mm | 8 mm | 10 mm | 8 mm | 6 mm | 7 mm | 8 mm | Dose-dependent effect | 10 mm | Dose-dependent effect | 10 mm | 8 mm | 6 mm | 7 mm | 9 mm | 8 mm | Activity (Staphylococcus aureus [20]): Dose-dependent effect
5 | O=C1N/C(=N\c2ccc(F)c(Cl)c2)S/C1=C\c1ccccc1[N+](=O)[O-] | inactive | Dose-dependent effect | 12 mm | 10 mm | 12 mm | 13 mm | 11 mm | 9 mm | 8 mm | 11 mm | 10 mm | Dose-dependent effect | 14 mm | Dose-dependent effect | 13 mm | 12 mm | 10 mm | 9 mm | 13 mm | 8 mm | Activity (Staphylococcus aureus [20]): Dose-dependent effect
6 | O=C1N/C(=N\c2cccc(Cl)c2)S/C1=C\c1cccc([N+](=O)[O-])c1 | inactive | Dose-dependent effect | 9 mm | 8 mm | 8 mm | 9 mm | 9 mm | 7 mm | 8 mm | 8 mm | 9 mm | Dose-dependent effect | 10 mm | Dose-dependent effect | 10 mm | 9 mm | 8 mm | 8 mm | 9 mm | 7 mm | Activity (Staphylococcus aureus [20]): Dose-dependent effect
7 | O=C1N/C(=N\c2ccc(Cl)cc2)S/C1=C\c1ccccc1 | inactive | Dose-dependent effect | 8 mm | 5 mm | 12 mm | 9 mm | 11 mm | 8 mm | 8 mm | 10 mm | 8 mm | Dose-dependent effect | 10 mm | Dose-dependent effect | 10 mm | 8 mm | 5 mm | 8 mm | 9 mm | 7 mm | Activity (Staphylococcus aureus [20]): Dose-dependent effect
8 | O=C1N/C(=N\c2ccc(Cl)cc2)S/C1=C\c1cccc([N+](=O)[O-])c1 | inactive | Dose-dependent effect | 10 mm | 9 mm | 10 mm | 10 mm | 11 mm | 8 mm | 8 mm | 9 mm | 9 mm | Dose-dependent effect | 10 mm | Dose-dependent effect | 11 mm | 9 mm | 8 mm | 9 mm | 9 mm | 7 mm | Activity (Staphylococcus aureus [20]): Dose-dependent effect
9 | O=C1N/C(=N\c2ccc(F)c(Cl)c2)S/C1=C\c1cccc([N+](=O)[O-])c1 | inactive | Dose-dependent effect | 12 mm | 12 mm | 10 mm | 14 mm | 12 mm | 8 mm | 8 mm | 9 mm | 11 mm | Dose-dependent effect | 16 mm | Dose-dependent effect | 15 mm | 12 mm | 11 mm | 10 mm | 14 mm | 7 mm | Activity (Staphylococcus aureus [20]): Dose-dependent effect
10 | O=C1N/C(=N\c2cccc(Cl)c2)S/C1=C\c1ccc(O)cc1 | inactive | Dose-dependent effect | 7 mm | 6 mm | 9 mm | 8 mm | 10 mm | 7 mm | 7 mm | 8 mm | 9 mm | Dose-dependent effect | 10 mm | Dose-dependent effect | 9 mm | 9 mm | 8 mm | 8 mm | 9 mm | 7 mm | Activity (Staphylococcus aureus [20]): Dose-dependent effect
11 | O=C(O)c1cn(C2CC2)c2cc(N3CCNCC3)c(F)cc2c1=O [CIPROFLOXACIN] |  |  | 15 mm |  |  |  |  |  |  |  |  |  |  |  |  | 14 mm |  | 15 mm |  |  | 

From ChEMBL document CHEMBL3044899, “Effect of chloro and fluoro groups on the antimicrobial activity of 2,5-disubstituted 4-thiazolidinones: a comparative study” (2012)
